Marks after values point to notes of the source that are not given here.
Key:
SK-hep1 liver tumors = assay: Transplanted tumor in nude mice, intraperitoneal, SK-hep1; type: in vivo, BALB/c nude mice; details: 8 administrations
Description: (§1) BALB/c nude mice were used to inoculate Bel-7402, HepG-2 and SK-hep1 liver tumors according to the transplanted tumor research method under aseptic operation, and the cell density was not less than 5×10^6/ml, 0.2 ml was inoculated subcutaneously in the axilla of the right hind limb of each mouse. After the cells were inoculated, the cells were administered intraperitoneally (concentration: 5 mg/kg), once every 3 days, for a total of 8 administrations. After the 2nd day of drug withdrawal, all tumor-bearing mice were sacrificed, and their body weight, tumor weight and tumor inhibition were weighed.

Lung cancer A549 cells = assay: In vitro antitumor activity test (MTT), A549; type: cell-based; details: Homo sapiens, 24 h
Description: (§2) 13 human tumor cell lines were selected and cultured in RPMI-1640 medium (Gibco company) containing 10% inactivated fetal bovine serum, 100 U/ml penicillin and 100 U/ml streptomycin, cultured at 37° C. in a 5% CO2 incubator, and passaged once every 2 days. Using the MTT method, cells in the logarithmic growth phase were digested with 0.25% trypsin, centrifuged at 1000 r/min for 5 min, 8×10^3 cells were added to each well, and seeded in a 96-well plate, and 180 μl of cell suspension was added to each well, and a blank was set at the same time. The 96-well plate inoculated with tumor cells was placed in a carbon dioxide incubator for 24 hours, and then 20 μl of the drug was added, and an equal volume of culture medium was added to the blank control well, and the drug was divided into 8 concentrations from 50 μg/L to 0.4 μg/L. Three duplicate wells were set for each drug concentration and placed in an incubator for 24 h. 10 μl of MTT solution (5 mg/ml) was added to each well, and the culture was continued for 4 h. The supernatant was aspirated and discarded, 100 μl of dimethyl sulfoxide (DMSO) solution was added to each well, placed on a micro shaker for 10 min, and the absorbance (A value) was measured at a wavelength of 492 nm in a microplate reader, and the inhibition rate of the drug on tumor cells was calculated according to the following formula.
(§3) In this test, the IC50 value of the compound on tumor cells was calculated by the Origin software according to the inhibition rate of the compound. AC-201 in the following table was the abbreviation of PL-AC-201, and so on.

[1] = tested on: Liver cancer SK-hep1 cells; assay: In vitro antitumor activity test (MTT), SK-hep1; type: cell-based; details: Homo sapiens, 24 h
Description: as §2, §3

HepG-2 liver tumors = assay: Transplanted tumor in nude mice, intraperitoneal, HepG-2; type: in vivo, BALB/c nude mice; details: 8 administrations
Description: as §1

human red blood cells = assay: Detection of hemolytic activity; type: cell-based
Description: 2-3 ml of human blood was drawn using an anticoagulant tube, thoroughly mixed, and kept at 4° C. for later use. 2 ml of blood was aspirated and added with 2-3 ml of PBS, followed by gently pipetting and centrifugation for 5 min at 1000 rpm, which was repeated 3-4 times. After the last centrifugation, PBS was aspirated, PBS was added to 40 ml (20 times the volume), and the number of blood cells at this time was 2×10^8 cells/ml. The red blood cell suspension was added to the plate (U-shaped 96-well plate), and 70 μl/well was used as a negative well. Only PBS was added to blank wells, 140 μl/well. 2 ml of the red blood cell suspension was centrifuged, PBS was discarded, 2 ml of pure water was added, mixed well, and 140 μl/well was used as a positive well. The diluted polypeptide solutions of different concentrations were added to the plate, 70 μl/well. Incubated at 37° C., 87 rpm, shaken for 2h, centrifuged for 5 min at 3000 rpm. The OD value measured by microplate reader: After centrifugation, 90 μl of supernatant was drawn and transferred to a flat-bottom 96-well plate, and the OD value at 578 nm was measured by microplate reader. ODtest-OD negative >0.1 (the first concentration that met the conditions was MHC).

[2] = tested on: Human osteosarcoma MG63 cells; assay: In vitro antitumor activity test (MTT), MG63; type: cell-based; details: MG-63, 24 h
Description: as §2, §3

Lung cancer H460 cells = assay: In vitro antitumor activity test (MTT), H460; type: cell-based; details: Homo sapiens, NCI-H460, 24 h
Description: as §2, §3

Melanoma B16 cells = assay: In vitro antitumor activity test (MTT), B16; type: cell-based; details: 24 h
Description: as §2, §3

[3] = tested on: Pancreatic cancer Bxpc-3 cells; assay: In vitro antitumor activity test (MTT), Bxpc-3; type: cell-based; details: Homo sapiens; Pancreatic cancer Bxpc-3, MTT, 24 h
Description: as §2, §3

[4] = tested on: Liver cancer HepG-2 cells; assay: In vitro antitumor activity test (MTT), HepG-2; type: cell-based; details: Homo sapiens, HepG2; Liver cancer HepG-2, MTT, 24 h
Description: as §2, §3

Colon cancer HT29 cells = assay: In vitro antitumor activity test (MTT), HT29; type: cell-based; details: Homo sapiens, HT-29, 24 h
Description: as §2, §3

[5] = tested on: Liver cancer Bel-7402 cells; assay: In vitro antitumor activity test (MTT), Bel-7402; type: cell-based; details: Homo sapiens; Liver cancer Bel-7402, MTT, 24 h
Description: as §2, §3

[6] = tested on: Breast cancer MCF-7 cells; assay: In vitro antitumor activity test (MTT), MCF-7; type: cell-based; details: Homo sapiens, MCF7; Breast cancer MCF-7, MTT, 24 h
Description: as §2, §3

[7] = Acute toxicity test of single administration to ICR mice; details: mouse, in vivo, intravenous, single tail vein injection, observed 7 days
Description: ICR mice, 18-22 g, were raised in a common-grade animal room, fed with common feed, and ingested freely. The group distance and dose were determined after exploring the Dm and Dn of the compounds of the examples. Five concentrations of the compounds of the examples were formulated at the desired dose. The corresponding doses of drugs were injected into the tail vein according to body weight, and the blank control group was injected with normal saline. Immediately after administration, the performance and death of each animal were observed and recorded, and the possible toxic reaction or death of animals within 7 days after a single administration was observed and recorded.

[8] = tested on: 13 human tumor cell lines; assay: Average IC50 over the tumor cell lines (MTT); type: cell-based; details: mean IC50 for each tumor, read-out: AverageIC50
Description: as §2, §3
The ratio of the hemolytic concentration MHC of the compound to the mean IC50 for each tumor was referred to as the therapeutic index (TI). The safety of the compound was evaluated by the therapeutic index. The higher the therapeutic index, the greater the safety range of the compound.

Bel-7402 liver tumors = assay: Transplanted tumor in nude mice, intraperitoneal, Bel-7402; type: in vivo, BALB/c nude mice; details: 8 administrations
Description: as §1

Lung cancer H292 cells = assay: In vitro antitumor activity test (MTT), H292; type: cell-based; details: Homo sapiens, NCI-H292, 24 h
Description: as §2, §3

[9] = tested on: Cervical cancer Hela cells; assay: In vitro antitumor activity test (MTT), Hela; type: cell-based; details: Homo sapiens, 24 h
Description: as §2, §3

Lung cancer H1299 cells = assay: In vitro antitumor activity test (MTT), H1299; type: cell-based; details: Homo sapiens, NCI-H1299, 24 h
Description: as §2, §3

[10] = SK-hep1, 5 mg/kg i.p. once every 3 days
[11] = HepG-2, 5 mg/kg i.p. once every 3 days
[12] = Bel-7402, 5 mg/kg i.p. once every 3 days

Q: Which Tumor inhibition rate (SK-hep1 liver tumors; [10]) does the source give for `CC(C(=O)NC(Cc1ccc(-c2ccccc2)cc1)C(=O)NC1CC(C)(C)NC(C)(C)C1)c1cccc(C(=O)c2ccccc2)c1` (centres unmarked) [PL-AC-206] here?
A: The Tumor inhibition rate was “^ΔΔ69.9** %”.

Q: What about the Tumor weight (SK-hep1 liver tumors; [10]) of the same compound?
A: Its Tumor weight is 337.3 ± 6.1 mg.

Q: What about the “Body Weight After administration” value (SK-hep1 liver tumors; SK-hep1 tumor-bearing BALB/c mice, 5 mg/kg i.p. once every 3 days) of the same compound?
A: The value was 23.0 ± 1.5 g.

Q: And the IC50 (Lung cancer A549 cells)?
A: The IC50 was 27.5 nM.

Q: And the IC50 [1]?
A: Its IC50 is 15.7 nM.

Q: What about the Tumor inhibition rate (HepG-2 liver tumors; [11]) of the same compound?
A: The Tumor inhibition rate was “^ΔΔ74.6** %”.

Q: What about the Tumor weight (HepG-2 liver tumors; [11]) of the same compound?
A: The Tumor weight was 468.9 ± 2.2 mg.

Q: And the “Body Weight After administration” value (HepG-2 liver tumors; HepG-2 tumor-bearing BALB/c mice, 5 mg/kg i.p. once every 3 days)?
A: The value was 23.5 ± 1.1 g.

Q: And the MHC (human red blood cells; hemolytic concentration, in nM)?
A: The MHC was 4.9e+06 nM.

Q: What about the MHC (human red blood cells; human red blood cells, 37° C., 2h, first concentration with ODtest-OD negative >0.1) of the same compound?
A: Its MHC is 3000 µg/mL.

Q: What about the IC50 [2] of the same compound?
A: The IC50 was 24.9 nM.

Q: And the IC50 (Lung cancer H460 cells)?
A: Its IC50 is 20 nM.

Q: What about the IC50 (Melanoma B16 cells) of the same compound?
A: Its IC50 is 30.1 nM.

Q: What about the IC50 [3] of the same compound?
A: The IC50 was 37.7 nM.

Q: What about the IC50 [4] of the same compound?
A: Its IC50 is 16.1 nM.

Q: What about the IC50 (Colon cancer HT29 cells) of the same compound?
A: The IC50 was 37.4 nM.

Q: And the IC50 [5]?
A: Its IC50 is under 38.2 nM.

Q: And the IC50 [6]?
A: Its IC50 is 22.5 nM.

Q: And the LD50 at 7 days [7]?
A: The LD50 at 7 days was 31.7 mg/kg.

Q: And the IC50 [8]?
A: Its IC50 is 24.6 nM.

Q: And the Tumor inhibition rate (Bel-7402 liver tumors; [12])?
A: The Tumor inhibition rate was “^ΔΔ71.4** %”.

Q: And the Tumor weight (Bel-7402 liver tumors; [12])?
A: Its Tumor weight is 226.8 ± 9.1 mg.

Q: And the “Body Weight After administration” value (Bel-7402 liver tumors; Bel-7402 tumor-bearing BALB/c mice, 5 mg/kg i.p. once every 3 days)?
A: Its value is 23.8 ± 1.3 g.

Q: What about the IC50 (Lung cancer H292 cells) of the same compound?
A: Its IC50 is 24.1 nM.

Q: What about the IC50 [9] of the same compound?
A: The IC50 was 19.2 nM.

Q: And the IC50 (Lung cancer H1299 cells)?
A: The IC50 was 20.2 nM.
